Test [1] has as its target T1, human GLP-1R receptor (Homo sapiens, UniProt P43220, L260F).
T1 construct: expressed in transfected cells; host or cells: CHO-K1 (ATCC CCL-61)
The test can be described thus: CHOK1 GLP-1R cAMP Assay. In kind it is cell-based. The note with it: CHO-K1 cell line stably expressing human GLP-1R; HTRF cAMP detection. How it is done: A cell line stably expressing the human GLP-1R receptor (NM_002062.5, including the naturally-occurring variant Leu260Phe) in a CHO-K1 (ATCC® CCL-61™) was used for assay.
GLP-1 Receptor mediated agonist activity was determined in a cell based assay measuring cAMP levels in cells using Homogeneous Time-Resolved Fluorescence (HTRF) cAMP detection kit (CisBio catalog #62AM4PEC, cAMP Gs Dynamic range kit). The cAMP detection method is based on a competitive immunoassay, in which cAMP produced by the cells and cAMP labeled with the dye d2 compete for binding to a Europium-Cryptate-labeled anti-cAMP antibody. The specific HTRF signal is inversely proportional to the concentration of cAMP.
Compounds were added to individual well in 384 well-assay plates (Greiner #784076) using an Echo (LabCyte) dispenser from 10 mM stocks. Varying concentration of compounds were added to wells, and dimethyl sulfoxide was used to normalize each well to a volume of 100 nanoliter. A dose response curve of GLP1(7-36)NH2 (Bachem H-6795) was included in each run. 5 μL of cAMP concentration response standards are applied in specified wells in the assay plates.
Cryo-preserved cells are thawed and resuspended in assay buffer pre-heated to 37° C. (20 mM 2-[4-(2-hydroxyethyl)piperazin-1-yl]ethanesulfonic acid (HEPES) pH 7.4, lx Hank's Balanced Salt Solution (HBSS, Life Technologies #14065) supplemented with 0.1% (w/v) bovine serum albumin (Sigma, A-7030)). Cells were centrifuged at 250*g for 5 min at room temperature, and resuspend in room tempered assay buffer to a final density of 0.16*10^6 cell/mL, to deliver 800 cells/well. 5 μL of assay buffer with 1 mM 3-isobutyl-1-methylxanthin (IBMX; Sigma cat I-7018) was dispensed per well in assay plates using a multidrop combi (Thermo Scientific) subsequently 5 μL of cell suspension was distributed to relevant wells in the assay using a multidrop dispenser. Assay plates were incubated 20 min at room temperature.
Detection reagents, Europium-Cryptate-labeled anti-cAMP antibody and cAMP labeled with the dye d2, are diluted in lysis buffer, provided by the manufacturer. 5 μL of each detection reagent is supplemented to each assay well using a multidrop dispenser. Assay plates are incubated in the dark for at least one hour. The HTRF signal is measured using the HTRF module (excitation: 337 nm, emission A: 665 nm and emission B: 620 nm) in Pherastar FSX (BMG Labtech).
Raw data were converted to pM cAMP using the cAMP standard curve included in each run. Converted data were further analyzed in Genedata Screener (Genedata) and EC50 determinations were made from agonist dose-response curves analyzed with a curve fitting program using a 4-parameter logistic dose response equation (Equation y=A+((B−A)/1+((C/x)^D))) where A is no stimulation, B is full stimulation, C is the EC50 and D is the Hill slope). The percent effect was determined relative to a saturating concentration of a full GLP-1R agonist (GLP1(7-36)NH2 has 100% effect in this assay setup).
A general note: In TR-FRET formats the signal depends on donor and acceptor labels being close together.

The target in test [2] is T2, endogenous human glucagon-like peptide 1 receptor (GLP-1R) (Homo sapiens, UniProt P43220).
T2 construct: endogenous human glucagon-like peptide 1 receptor (GLP-1R) in a pancreatic insulinoma cell line; host or cells: EndoC-βH1 human pancreatic β cell line
T2 sequence (P43220 24-463): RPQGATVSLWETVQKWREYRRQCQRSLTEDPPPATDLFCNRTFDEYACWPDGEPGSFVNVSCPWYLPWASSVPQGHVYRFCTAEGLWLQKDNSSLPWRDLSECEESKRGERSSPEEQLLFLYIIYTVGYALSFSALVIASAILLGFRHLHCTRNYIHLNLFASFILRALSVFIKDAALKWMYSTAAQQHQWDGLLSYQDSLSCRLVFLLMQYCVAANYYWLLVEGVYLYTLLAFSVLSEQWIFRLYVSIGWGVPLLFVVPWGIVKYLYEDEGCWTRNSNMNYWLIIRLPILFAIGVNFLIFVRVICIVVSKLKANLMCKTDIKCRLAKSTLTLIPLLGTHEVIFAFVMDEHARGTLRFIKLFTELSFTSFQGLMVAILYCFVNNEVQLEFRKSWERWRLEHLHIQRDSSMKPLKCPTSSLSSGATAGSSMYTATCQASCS
Briefly: EndoC cAMP Accumulation Assay. The note with it: EndoC-βH1 human pancreatic β cell line; HTRF cAMP assay. Type of test: cell-based. From the text:
EndoC cAMP Accumulation Assay
A HTRF (Homogeneous Time-Resolved Fluorescence) cAMP assay (cAMP Gs dynamic kit; CisoBio Cat #62AM4PEJ) was used to identify agonists of the endogenous human glucagon-like peptide 1 receptor (GLP-1R) in a pancreatic insulinoma cell line (EndoC-βH1). […] EndoC-βH1 cells have detectable GLP-1R mRNA as detected by qPCR^1. […] The EndoC-βH1 cell line is a valid model of human beta cells and applicable for screenings to identify novel drug target candidates (Mol. Metab., 2018, 8, 144-157). CisBio HTRF cAMP kits are based on a competitive immunoassay using cryptate-labelled anti-cAMP antibody and d2-labeled cAMP. The detection kit is intended for the direct quantitative determination of cAMP. The specific signal (i.e. energy transfer) is inversely proportional to the concentration of cAMP in the standard or sample. Test compounds (10 mM in DMSO) were diluted into assay buffer (HBSS (Sigma #H8264) supplemented with 25 mM HEPES (Gibco #15630, pH 7.4), 0.1% BSA (Sigma #A3059) and 0.5 mM IBMX (Sigma #I7018) included fresh on the day of the assay) into 96 well U-bottom plates (Greiner #650201). Diluted compounds were transferred to ECHO source PP plates (Labcyte #P-05525) and dose response curves were dispensed acoustically using ECHO 550 into black shallow-well u-bottom 384-well HTRF Assay Plates (Corning 4514).
Cryovials of EndoC-H1 (supplied at 1×10e^7 cells/vial) were used directly for screening. The cryovials and were removed from LN2 and thawed rapidly in a 37° C. water bath. The cells were resuspended in assay buffer and centrifuged at 300 g for 5 min. Cells were resuspended in assay buffer at the appropriate concentration, typically at 12e5 cells per mL (3000 cells per well, dependent on cell batch) and 2.5 μL diluted cells were added to all wells of destination plate by Multidrop combi reagent dispenser (Thermofisher). The plates were incubated at room temperature for 30 min. The assay was stopped by adding 2.5 μL anti-cAMP cryptate solution to all wells and 2.5 μL cAMP-d2 solution (both diluted 1:20 in lysis buffer) to columns 1-22 by Combi drop. A volume of 2.5 μL cAMP-d2 solution was added to wells E23 to P24 and 2.5 μL lysis buffer added to wells A23 to D24 by multichannel pipette. The plates were incubated at room temperature for 1 hr and read on an Envision plate reader using excitation wavelength of 320 nm and emission of 590 nm and 660 nm.
Raw data from Envision is converted to % DeltaF according to the manufacturer's instructions. Dose response curves are analysed via 4-Parameter Logistical Analysis and assay plate Z′ values obtained. Samples are graphed as percentage (%) activation plots compared to GIP (1-42, Bachem H-5645) with assay window defined by negative control as basal cell cAMP levels and positive control are defined by maximum GIP (82.5 nM) signal. GLP1 (7-36 amide, Bachem H-6795) dose response curve was included on all plates.

T1 sequence (P43220 24-463 L260F): as the sequence (P43220 24-463) above, with L237F counted along it

Turning to `C[C@]1(c2ccc(Cl)cc2F)Oc2cccc(N3CCN(Cc4nc5c(F)cc(C(=O)O)cc5n4Cc4cccnc4)[C@H]4COC[C@H]43)c2O1` (single isomer, unassigned) [Example 13a], the 50% effective concentration (EC50) in test [1] stood at 55 nM; in test [2], 13 nM.
For the compound `C[C@]1(c2ccc(Cl)cc2F)Oc2cccc(N3CCN(Cc4nc5c(F)cc(C(=O)O)cc5n4Cc4cccnc4)[C@H]4COC[C@H]43)c2O1` (single isomer, unassigned) [Example 13b], the values for the half-maximal effective concentration (EC50) in test [1] and in test [2] were 680 nM and 290 nM, respectively.
As to `C[C@]1(c2ccc(Cl)cc2F)Oc2cccc(N3CCN(Cc4nc5ccc(C(=O)O)cc5n4C[C@@H]4CCO4)[C@H]4COC[C@H]43)c2O1` (single isomer, unassigned) [Example 6c, 2-(((4aR*,7aS*)-4-((R*)-2-(4-Chloro-2-fluorophenyl)-2-methylbenzo[d][1,3]dioxol-4-yl)hexahydrofuro[3,4-b]pyrazin-1(2H)-yl)methyl)-1-(((S)-oxetan-2-yl)methyl)-1H-benzo[d]imidazole-6-carboxylic acid], the concentration giving a half-maximal response (EC50) was 39 nM in test [1] and 150 nM in test [2].
In the case of `COc1cc(C(=O)O)cc2c1nc(CN1CCN(c3cccc4c3O[C@@](C)(c3ccc(Cl)cc3F)O4)[C@@H]3COC[C@@H]31)n2C[C@@H]1CCO1` (single isomer, unassigned) [Example 3c, 2-(((4aR*,7aS*)-4-((R*)-2-(4-Chloro-2-fluorophenyl)-2-methylbenzo[d][1,3]dioxol-4-yl)hexahydrofuro[3,4-b]pyrazin-1(2H)-yl)methyl)-4-methoxy-1-(((S)-oxetan-2-yl)methyl)-1H-benzo[d]imidazole-6-carboxylic acid], the EC50 in test [1] was determined as 150 nM; in test [2] it was 130 nM.
`C[C@]1(c2ccc(Cl)cc2F)Oc2cccc(N3CCN(Cc4nc5ccc(C(=O)O)cc5n4C[C@@H]4CCO4)[C@H]4COC[C@H]43)c2O1` (single isomer, unassigned) [Example 6b, 2-(((4aR*,7aS*)-4-((R*)-2-(4-Chloro-2-fluorophenyl)-2-methylbenzo[d][1,3]dioxol-4-yl)hexahydrofuro[3,4-b]pyrazin-1(2H)-yl)methyl)-1-(((S)-oxetan-2-yl)methyl)-1H-benzo[d]imidazole-6-carboxylic acid]: the EC50 is 54 nM in test [1] and 300 nM in test [2].
For the compound `C[C@]1(c2ccc(Cl)cn2)Oc2cccc(N3CCN(Cc4nc5c(F)cc(C(=O)O)cc5n4CC4(C#N)CC4)[C@H]4COC[C@H]43)c2O1` (single isomer, unassigned) [Example 22c], the concentration giving a half-maximal response (EC50) was found to be 140 nM in test [1] and 580 nM in test [2].
In the case of `C[C@]1(c2ccc(Cl)cc2F)Oc2cccc(N3CCN(Cc4nc5c(F)cc(C(=O)O)cc5n4Cc4cocn4)[C@H]4COC[C@H]43)c2O1` (single isomer, unassigned) [Example 20a], the 50% effective concentration (EC50) came to 150 nM in test [1] and 410 nM in test [2].
In the case of `Cc1nccn1CCn1c(CN2CCN(c3cccc4c3O[C@@](C)(c3ccc(Cl)cc3F)O4)[C@@H]3COC[C@@H]32)nc2c(F)cc(C(=O)O)cc21` (single isomer, unassigned) [Example 17], the results for the EC50 in test [1] and in test [2] were 14 nM and 4.5 nM, respectively.
On to `C[C@]1(c2ccc(Cl)cn2)Oc2cccc(N3CCN(Cc4nc5ccc(C(=O)O)cc5n4C[C@@H]4CCO4)[C@H]4COC[C@H]43)c2O1` (relative stereo) [Example 5a, 2-((4aR*,7aS*)-4-((R*)-2-(5-Chloropyridin-2-yl)-2-methylbenzo[d][1,3]dioxol-4-yl)hexahydrofuro[3,4-b]pyrazin-1(2H)-yl)methyl)-1-(((S)-oxetan-2-yl)methyl)-1H-benzo[d]imidazole-6-carboxylic acid], for which the EC50 turned out to be 180 nM in test [1] and 1300 nM in test [2].
For `C[C@]1(c2ccc(Cl)cn2)Oc2cccc(N3CCN(Cc4nc5c(Cl)cc(C(=O)O)cc5n4C[C@@H]4CCO4)[C@H]4COC[C@H]43)c2O1` (single isomer, unassigned) [Example 14c, 4-Chloro-2-(((4aR*,7aS*)-4-((R*)-2-(5-chloropyridin-2-yl)-2-methylbenzo[d][1,3]dioxol-4-yl)hexahydrofuro[3,4-b]pyrazin-1(2H)-yl)methyl)-1-(((S)-oxetan-2-yl)methyl)-1H-benzo[d]imidazole-6-carboxylic acid], the EC50 came to 180 nM in test [1] and 230 nM in test [2].
Regarding `C[C@@]1(c2ccc(Cl)cc2F)Oc2cccc(N3CCN(Cc4nc5c(Cl)cc(C(=O)O)cc5n4C[C@@H]4CCO4)[C@@H]4COC[C@@H]43)c2O1` (relative stereo) [Example 15a, 4-Chloro-2-(((4aR*,7aS*)-4-((R*)-2-(4-chloro-2-fluorophenyl)-2-methylbenzo[d][1,3]dioxol-4-yl)hexahydrofuro[3,4-b]pyrazin-1(2H)-yl)methyl)-1-(((S)-oxetan-2-yl)methyl)-1H-benzo[d]imidazole-6-carboxylic acid], the values for the EC50 in test [1] and in test [2] were 1.1 nM and 1.9 nM, respectively.
The matching figures for `COc1cc(C(=O)O)cc2c1nc(CN1CCN(c3cccc4c3OC(C)(c3ccc(Cl)cc3F)O4)[C@@H]3COC[C@@H]31)n2C[C@@H]1CCCO1` (relative stereo) [Example 28, 2-(((4aS,7aR)-4-((R*)-2-(4-Chloro-2-fluorophenyl)-2-methylbenzo[d][1,3]dioxol-4-yl)hexahydrofuro[3,4-b]pyrazin-1(2H)-yl)methyl)-4-methoxy-1-(((S)-tetrahydrofuran-2-yl)methyl)-1H-benzo[d]imidazole-6-carboxylic acid]: 2 nM and 1.2 nM.
As to `C[C@]1(c2ccc(Cl)cc2F)Oc2cccc(N3CCN(Cc4nc5ccc(C(=O)O)cc5n4CCn4cccn4)[C@H]4COC[C@H]43)c2O1` (single isomer, unassigned) [Example 7c], the EC50 worked out at 110 nM in test [1] and 3900 nM in test [2].

A word on the EC50: it is the concentration that produces a half-maximal response. The low end stands for greater potency, the high end for weaker potency.
